These are literature values, as cited in patent US20090105490A1, “Polymorphic forms of ramelteon and processes for preparation thereof” (priority 2007, published 2009).

The target of one data set is T1, melatonin MT2 receptor (Homo sapiens, UniProt P49286).
T1 sequence (P49286 1-362): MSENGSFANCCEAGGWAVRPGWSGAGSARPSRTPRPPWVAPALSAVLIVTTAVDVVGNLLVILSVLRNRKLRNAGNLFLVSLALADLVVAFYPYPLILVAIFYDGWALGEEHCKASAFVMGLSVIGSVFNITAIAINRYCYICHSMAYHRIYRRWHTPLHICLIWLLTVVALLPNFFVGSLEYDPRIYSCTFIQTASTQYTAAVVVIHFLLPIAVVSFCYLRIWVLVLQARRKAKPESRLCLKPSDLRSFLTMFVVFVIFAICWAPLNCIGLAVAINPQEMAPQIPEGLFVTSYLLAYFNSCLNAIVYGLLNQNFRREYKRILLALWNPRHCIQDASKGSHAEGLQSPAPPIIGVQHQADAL
As to conditions: melatonin receptor agonist.

The target in a further data set is melatonin MT1 receptor (Homo sapiens, UniProt P48039). The note with it: melatonin receptor agonist.
melatonin MT1 receptor, sequence (P48039 whole entry): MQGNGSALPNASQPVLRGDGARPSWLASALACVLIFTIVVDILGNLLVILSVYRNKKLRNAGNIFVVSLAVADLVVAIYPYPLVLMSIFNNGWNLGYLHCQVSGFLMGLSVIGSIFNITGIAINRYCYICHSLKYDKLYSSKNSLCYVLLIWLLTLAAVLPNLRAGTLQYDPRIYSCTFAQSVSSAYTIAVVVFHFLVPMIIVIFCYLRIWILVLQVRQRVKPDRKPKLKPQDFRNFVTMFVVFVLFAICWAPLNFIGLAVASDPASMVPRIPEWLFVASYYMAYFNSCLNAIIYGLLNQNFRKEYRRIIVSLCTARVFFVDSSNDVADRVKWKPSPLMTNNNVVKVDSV
In another data set the test system is MT3 receptor. The note with it: MT1 and MT2 versus MT3.

Like-named read-outs stand apart in the source and are kept apart here.

For the molecule `CCC(=O)NCC[C@@H]1CCc2ccc3c(c21)CCO3` [Ramelteon, (S)-N-[2-(1,6,7,8-tetrahydro-2H-indeno-[5,4-b]furan-8-yl)ethyl]propionamide], the “affinity for melatonin MT2 receptor” value on melatonin MT2 receptor is “high affinity”. In addition, on melatonin MT1 receptor, the “affinity for melatonin MT1 receptor” value is “high affinity”. For the same molecule, the solubility entry is, setting by setting: (1-octanol) “freely soluble”; (DMSO) “freely soluble”; (aqueous buffers) “slightly soluble”; (ethanol) “freely soluble”; (methanol) “freely soluble”; (water) “slightly soluble”. In addition, the “selectivity over the MT3 receptor” value in the data set with MT3 receptor was “selectivity over the MT3 receptor”.
